Data reported in PubChem BioAssay (NCI).
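Method: 48-hour compound exposure of cells in 96-well plates, five concentrations, linear interpolation of endpoints. GI50 is the concentration that inhibits growth by half. TGI: total growth inhibition.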

Key:
Assay in all cases: NCI tumour cell line growth inhibition, 48 h; in the data active means GI50 below about 0.43 µM; inactive means the rest
UACC-257 melanoma = system: UACC-257 melanoma
HOP-92 NSCLC = system: HOP-92 NSCLC
A549 NSCLC = system: A549 NSCLC
OVCAR-8 ovarian = system: OVCAR-8 ovarian
SF-268 CNS = system: SF-268 CNS
OVCAR-4 ovarian = system: OVCAR-4 ovarian
BT-549 breast = system: BT-549 breast
K-562 leukemia = system: K-562 leukemia
DU-145 prostate = system: DU-145 prostate
MDA-MB-435 = system: MDA-MB-435
SF-295 CNS = system: SF-295 CNS
HT29 colon = system: HT29 colon
KM12 colon = system: KM12 colon
NCI-H23 lung = system: NCI-H23 lung
OVCAR-3 ovarian = system: OVCAR-3 ovarian
UO-31 renal = system: UO-31 renal
U251 CNS = system: U251 CNS
SK-MEL-28 melanoma = system: SK-MEL-28 melanoma
HCC-2998 colon = system: HCC-2998 colon
SN12C renal = system: SN12C renal
SF-539 CNS = system: SF-539 CNS
TK-10 renal = system: TK-10 renal
NCI-H226 lung = system: NCI-H226 lung
NCI-H522 lung = system: NCI-H522 lung
NCI-H460 lung = system: NCI-H460 lung
HCT-15 colon = system: HCT-15 colon
SK-OV-3 ovarian = system: SK-OV-3 ovarian
SNB-19 CNS = system: SNB-19 CNS
PC-3 prostate = system: PC-3 prostate
SK-MEL-2 melanoma = system: SK-MEL-2 melanoma
RPMI-8226 leukemia = system: RPMI-8226 leukemia
MALME-3M melanoma = system: MALME-3M melanoma
SW-620 colon = system: SW-620 colon
SNB-75 CNS = system: SNB-75 CNS
SK-MEL-5 melanoma = system: SK-MEL-5 melanoma
MOLT-4 leukemia = system: MOLT-4 leukemia
HL-60(TB) leukemia = system: HL-60(TB) leukemia
A498 renal = system: A498 renal
HCT-116 colon = system: HCT-116 colon
SR leukemia = system: SR leukemia
LOX IMVI melanoma = system: LOX IMVI melanoma
MDA-MB-231 breast = system: MDA-MB-231 breast
M14 melanoma = system: M14 melanoma
CCRF-CEM leukemia = system: CCRF-CEM leukemia
NCI/ADR-RES ovarian = system: NCI/ADR-RES ovarian
786-0 renal = system: 786-0 renal
RXF 393 renal = system: RXF 393 renal
IGROV1 ovarian = system: IGROV1 ovarian
EKVX NSCLC = system: EKVX NSCLC
T-47D breast = system: T-47D breast
HS 578T breast = system: HS 578T breast
CAKI-1 renal = system: CAKI-1 renal
MCF7 breast = system: MCF7 breast
COLO 205 colon = system: COLO 205 colon
OVCAR-5 ovarian = system: OVCAR-5 ovarian
HOP-62 NSCLC = system: HOP-62 NSCLC
ACHN renal = system: ACHN renal
UACC-62 melanoma = system: UACC-62 melanoma

NC(=O)c1ccccc1NC(=O)c1ccccc1Cl
> 100 µM: TGI (UACC-257 melanoma) | TGI (HOP-92 NSCLC) | TGI (A549 NSCLC) | TGI (OVCAR-8 ovarian) | TGI (SF-268 CNS) | TGI (OVCAR-4 ovarian) | TGI (BT-549 breast) | TGI (K-562 leukemia) | TGI (DU-145 prostate) | TGI (MDA-MB-435) | TGI (SF-295 CNS) | TGI (HT29 colon) | TGI (KM12 colon) | TGI (NCI-H23 lung) | TGI (OVCAR-3 ovarian) | TGI (UO-31 renal) | TGI (U251 CNS) | TGI (SK-MEL-28 melanoma) | TGI (HCC-2998 colon) | TGI (SN12C renal) | TGI (SF-539 CNS) | TGI (TK-10 renal) | TGI (NCI-H226 lung) | TGI (NCI-H522 lung) | TGI (NCI-H460 lung) | TGI (HCT-15 colon) | TGI (SK-OV-3 ovarian) | TGI (SNB-19 CNS) | TGI (PC-3 prostate) | TGI (SK-MEL-2 melanoma) | TGI (RPMI-8226 leukemia) | TGI (MALME-3M melanoma) | TGI (SW-620 colon) | TGI (SNB-75 CNS) | TGI (SK-MEL-5 melanoma) | TGI (MOLT-4 leukemia) | TGI (HL-60(TB) leukemia) | TGI (A498 renal) | TGI (HCT-116 colon) | TGI (SR leukemia) | TGI (LOX IMVI melanoma) | TGI (MDA-MB-231 breast) | TGI (M14 melanoma) | TGI (CCRF-CEM leukemia) | TGI (NCI/ADR-RES ovarian) | TGI (786-0 renal) | TGI (RXF 393 renal) | TGI (IGROV1 ovarian) | TGI (EKVX NSCLC) | TGI (T-47D breast) | TGI (HS 578T breast) | TGI (CAKI-1 renal) | TGI (MCF7 breast) | TGI (COLO 205 colon) | TGI (OVCAR-5 ovarian) | TGI (HOP-62 NSCLC) | TGI (ACHN renal) | TGI (UACC-62 melanoma)
inactive: GI50 (UACC-257 melanoma) > 100 µM | GI50 (HOP-92 NSCLC) 60.7 µM | GI50 (A549 NSCLC) > 100 µM | GI50 (OVCAR-8 ovarian) > 100 µM | GI50 (SF-268 CNS) > 100 µM | GI50 (OVCAR-4 ovarian) > 100 µM | GI50 (BT-549 breast) > 100 µM | GI50 (K-562 leukemia) > 100 µM | GI50 (DU-145 prostate) > 100 µM | GI50 (MDA-MB-435) 58.9 µM | GI50 (SF-295 CNS) > 100 µM | GI50 (HT29 colon) > 100 µM | GI50 (KM12 colon) > 100 µM | GI50 (NCI-H23 lung) > 100 µM | GI50 (OVCAR-3 ovarian) > 100 µM | GI50 (UO-31 renal) > 100 µM | GI50 (U251 CNS) > 100 µM | GI50 (SK-MEL-28 melanoma) > 100 µM | GI50 (HCC-2998 colon) > 100 µM | GI50 (SN12C renal) > 100 µM | GI50 (SF-539 CNS) > 100 µM | GI50 (TK-10 renal) > 100 µM | GI50 (NCI-H226 lung) > 100 µM | GI50 (NCI-H522 lung) > 100 µM | GI50 (NCI-H460 lung) > 100 µM | GI50 (HCT-15 colon) > 100 µM | GI50 (SK-OV-3 ovarian) > 100 µM | GI50 (SNB-19 CNS) > 100 µM | GI50 (PC-3 prostate) > 100 µM | GI50 (SK-MEL-2 melanoma) > 100 µM | GI50 (RPMI-8226 leukemia) > 100 µM | GI50 (MALME-3M melanoma) > 100 µM | GI50 (SW-620 colon) > 100 µM | GI50 (SNB-75 CNS) > 100 µM | GI50 (SK-MEL-5 melanoma) > 100 µM | GI50 (MOLT-4 leukemia) > 100 µM | GI50 (HL-60(TB) leukemia) > 100 µM | GI50 (A498 renal) 56.2 µM | GI50 (HCT-116 colon) > 100 µM | GI50 (SR leukemia) > 100 µM | GI50 (LOX IMVI melanoma) > 100 µM | GI50 (MDA-MB-231 breast) > 100 µM | GI50 (M14 melanoma) > 100 µM | GI50 (CCRF-CEM leukemia) > 100 µM | GI50 (NCI/ADR-RES ovarian) > 100 µM | GI50 (786-0 renal) > 100 µM | GI50 (RXF 393 renal) > 100 µM | GI50 (IGROV1 ovarian) > 100 µM | GI50 (EKVX NSCLC) > 100 µM | GI50 (T-47D breast) > 100 µM | GI50 (HS 578T breast) > 100 µM | GI50 (CAKI-1 renal) > 100 µM | GI50 (MCF7 breast) > 100 µM | GI50 (COLO 205 colon) > 100 µM | GI50 (OVCAR-5 ovarian) > 100 µM | GI50 (HOP-62 NSCLC) > 100 µM | GI50 (ACHN renal) > 100 µM | GI50 (UACC-62 melanoma) > 100 µM
